Reference: ChEMBL document CHEMBL1124909 (J Med Chem, 1990)

Experiments:
Assay type in all cases: functional
Conditions in all cases: 720 h
Mus musculus [1] = assay: The percentage 30-day survival of the mice at 600 mg/kg dose, with the radiation dose of 10 GY.
Mus musculus [2] = assay: The percentage 30-day survival of the mice at 75 mg/kg dose, with the radiation dose of 10 Gy.
Mus musculus [3] = assay: The percentage 30-day survival of the mice at 150 mg/kg dose, with the radiation dose of 10 Gy.
Mus musculus [4] = assay: The percentage 30-day survival of the mice at 300 mg/kg dose, with the radiation dose of 10 GY.

NCCCNCCSP(=O)(O)O [AMIFOSTINE]
survival at 600 mg/kg (Mus musculus [1]): 100%
survival at 75 mg/kg (Mus musculus [2]): 40%
survival at 150 mg/kg (Mus musculus [3]): 40%
survival at 300 mg/kg (Mus musculus [4]): 100%
